Measurements: the NIST ThermoML archive (doi:10.1021/je1013476)
± gives the expanded uncertainty stated by the source.

Columns and labels:
[1] = xn = mol fraction of the nth substance listed; settings: 101 kPa, Liquid; for viscosity: Capillary tube (Ostwald / Ubbelohde) method; for mass density: Vibrating tube method
[2] = excess molar enthalpy (molar enthalpy of mixing); xn = mol fraction of the nth substance listed; settings: 303.15 K, 101 kPa, Liquid, Calvet calorimetry

CCOC(=O)OCC [diethyl carbonate] + CCO
[1]
Settings | mass density [kg/m3] | viscosity [mPa·s]
288.15 K, x1 = 0.05544 | 813.88 ± 0.11 | 1.181 ± 0.011
288.15 K, x1 = 0.1 | 828.53 ± 0.11 | 1.111 ± 0.011
288.15 K, x1 = 0.197 | 856.33 ± 0.1 | 0.996 ± 0.01
288.15 K, x1 = 0.2998 | 881.02 ± 0.09 | 0.917 ± 0.009
288.15 K, x1 = 0.4062 | 902.55 ± 0.09 | 0.864 ± 0.009
288.15 K, x1 = 0.5039 | 919.48 ± 0.08 | 0.838 ± 0.008
288.15 K, x1 = 0.613 | 935.91 ± 0.08 | 0.821 ± 0.008
288.15 K, x1 = 0.6939 | 946.73 ± 0.08 | 0.815 ± 0.008
288.15 K, x1 = 0.7942 | 958.83 ± 0.08 | 0.819 ± 0.008
288.15 K, x1 = 0.8992 | 970.29 ± 0.07 | 0.834 ± 0.008
288.15 K, x1 = 0.9744 | 977.89 ± 0.07 | 0.856 ± 0.008
293.15 K, x1 = 0.05208 | 808.2 ± 0.12 | 1.115 ± 0.011
293.15 K, x1 = 0.09645 | 822.76 ± 0.11 | 1.045 ± 0.01
293.15 K, x1 = 0.1983 | 851.8 ± 0.1 | 0.93 ± 0.009
293.15 K, x1 = 0.2931 | 874.46 ± 0.1 | 0.867 ± 0.009
293.15 K, x1 = 0.4089 | 897.78 ± 0.09 | 0.818 ± 0.008
293.15 K, x1 = 0.4945 | 912.58 ± 0.09 | 0.794 ± 0.008
293.15 K, x1 = 0.6111 | 930.21 ± 0.08 | 0.777 ± 0.008
293.15 K, x1 = 0.6787 | 939.26 ± 0.08 | 0.771 ± 0.008
293.15 K, x1 = 0.7692 | 950.39 ± 0.08 | 0.77 ± 0.008
293.15 K, x1 = 0.8767 | 962.34 ± 0.08 | 0.779 ± 0.008
293.15 K, x1 = 0.9444 | 969.33 ± 0.08 | 0.791 ± 0.008
303.15 K, x1 = 0.04589 | 797.14 ± 0.12 | 0.937 ± 0.009
303.15 K, x1 = 0.09693 | 813.63 ± 0.11 | 0.88 ± 0.009
303.15 K, x1 = 0.1943 | 840.98 ± 0.11 | 0.799 ± 0.008
303.15 K, x1 = 0.2843 | 862.32 ± 0.1 | 0.747 ± 0.007
303.15 K, x1 = 0.4098 | 887.33 ± 0.09 | 0.703 ± 0.007
303.15 K, x1 = 0.5128 | 904.7 ± 0.09 | 0.686 ± 0.007
303.15 K, x1 = 0.6176 | 920.01 ± 0.09 | 0.678 ± 0.007
303.15 K, x1 = 0.6907 | 929.62 ± 0.08 | 0.675 ± 0.007
303.15 K, x1 = 0.7896 | 941.46 ± 0.08 | 0.675 ± 0.007
303.15 K, x1 = 0.8863 | 951.96 ± 0.08 | 0.681 ± 0.007
303.15 K, x1 = 0.9676 | 960.23 ± 0.08 | 0.694 ± 0.007
313.15 K, x1 = 0.04956 | 789.32 ± 0.12 | 0.761 ± 0.008
313.15 K, x1 = 0.09649 | 804.16 ± 0.12 | 0.715 ± 0.007
313.15 K, x1 = 0.207 | 834.28 ± 0.11 | 0.647 ± 0.007
313.15 K, x1 = 0.2847 | 852.21 ± 0.11 | 0.618 ± 0.006
313.15 K, x1 = 0.3982 | 874.66 ± 0.1 | 0.591 ± 0.006
313.15 K, x1 = 0.5049 | 892.56 ± 0.1 | 0.578 ± 0.006
313.15 K, x1 = 0.6079 | 907.66 ± 0.09 | 0.574 ± 0.006
313.15 K, x1 = 0.6227 | 909.67 ± 0.09 | 0.573 ± 0.006
313.15 K, x1 = 0.6895 | 918.3 ± 0.09 | 0.575 ± 0.006
313.15 K, x1 = 0.7826 | 929.4 ± 0.09 | 0.58 ± 0.006
313.15 K, x1 = 0.8924 | 941.3 ± 0.08 | 0.594 ± 0.006
313.15 K, x1 = 0.9563 | 947.79 ± 0.08 | 0.606 ± 0.006

[2]
Settings | excess molar enthalpy [kcal/mol]
x1 = 0.06432 | 0.0943 ± 0.00206
x1 = 0.1113 | 0.152 ± 0.00335
x1 = 0.1833 | 0.226 ± 0.00478
x1 = 0.2439 | 0.276 ± 0.00598
x1 = 0.3034 | 0.317 ± 0.00669
x1 = 0.3739 | 0.356 ± 0.00765
x1 = 0.4258 | 0.378 ± 0.00813
x1 = 0.5066 | 0.395 ± 0.00837
x1 = 0.5445 | 0.395 ± 0.00837
x1 = 0.64 | 0.39 ± 0.00837
x1 = 0.7134 | 0.366 ± 0.00789
x1 = 0.7663 | 0.335 ± 0.00717
x1 = 0.8243 | 0.285 ± 0.00621
x1 = 0.8998 | 0.189 ± 0.00406
x1 = 0.9557 | 0.0946 ± 0.00208
